Data set [1] can be described thus: Dissolution in ethanol (check for ferric hydroxide in ferric trimaltol). The conditions noted are these: for dissolution of ferric trimaltol powder in ethanol: powders produced as per Examples 1 and 2 dissolved in ethanol, complete dissolution confirms absence of iron hydroxides. As for the experimental part: As such ferric trimaltol powders produced as per Examples 1 and 2 were dissolved in ethanol.

For data set [2] the following is noted: in vivo; cited from earlier work.
Data set [3] concerns IBD patients. The conditions noted are these: in vivo; cited from earlier work.

Each structure is given as a SMILES string.

The values below come from patent US11267836B2, “Methods for producing ferric maltol compositions from ligand modified and ligand coated ferric hydroxides” (Shield TX (UK) Limited, priority 2016, dated 2022).

For `Cc1occc(=O)c1[O-].Cc1occc(=O)c1[O-].Cc1occc(=O)c1[O-].[Fe+3]` [Example 1], in data set [1], the “dissolution of ferric trimaltol powder in ethanol” value is “did not”.
`Cc1occc(=O)c1[O-].Cc1occc(=O)c1[O-].Cc1occc(=O)c1[O-].[Fe+3]` [Example 2]: the “dissolution of ferric trimaltol powder in ethanol” value in data set [1] was “dissolved completely”.
As to `Cc1occc(=O)c1[O-].Cc1occc(=O)c1[O-].Cc1occc(=O)c1[O-].[Fe+3]` [Ferric trimaltol, ferric trimaltol], the absorption entry in data set [2] is listed as “well absorbed”. For the same molecule, the tolerability result in data set [3] is reported as “well tolerated”. Also, the solubility in ethanol result in data set [1] is “soluble in ethanol”.
